Test results: patent US20250122257A1, “USE OF KININ OR DERIVATIVE THEREOF IN TREATING VCI, PSCI, OR CSVD” (ZonHon Biopharma Institute, Inc., priority 2022, published 2025)
Where two headings read alike, the source gives them in different places. Square brackets hold non-standard residues; d marks the D form. Ends that are not written are not given here. Peptide text beside a SMILES is read from it. 2Thi = N[C@@H](Cc1cccs1)C(=O)O

What was measured:
[1] = in vivo, cited from earlier work
B2 receptor = biological target: T1, B2 receptor (Homo sapiens, UniProt P30411); experiment: Affinity activity to B2 receptor, reporter gene assay in B2-NFAT-CHO-K1 cells; type: cell-based; conditions: relative activity calculated from EC50, 5 hours
T1 construct: expressed in transfected cells
T1 sequence (P30411 1-391): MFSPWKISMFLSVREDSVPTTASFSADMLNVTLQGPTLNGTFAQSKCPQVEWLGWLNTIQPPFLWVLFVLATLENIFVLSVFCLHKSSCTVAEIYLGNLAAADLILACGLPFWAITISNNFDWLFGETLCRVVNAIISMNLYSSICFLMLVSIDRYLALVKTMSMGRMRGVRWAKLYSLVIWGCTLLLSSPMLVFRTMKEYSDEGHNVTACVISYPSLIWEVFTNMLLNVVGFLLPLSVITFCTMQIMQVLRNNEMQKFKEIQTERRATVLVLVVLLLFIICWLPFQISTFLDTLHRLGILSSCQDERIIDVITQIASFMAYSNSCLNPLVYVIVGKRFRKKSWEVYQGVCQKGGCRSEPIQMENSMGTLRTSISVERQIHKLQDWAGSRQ
Experimental: The cell line B2-NFAT-CHO-K1 stably transfected with B2 receptor reporter gene was constructed based on CHO-K1 host cells and the cell library was constructed. The B2-NFAT-CHO-K1 cell library was used to evaluate the binding activity of lysyl bradykinin/bradykinin or its variants or PEG modified products to B2 receptor in vitro.
Detection methods: The cells were cultured in 96-well plates at 5×10^4cells/well, 37° C., 5% CO2 for 16-20 hours, and then gradient diluted standard and test solutions were added. After 5 hours, added Bio-Lite luciferase detection reagent and the chemiluminescence intensity was measured. GraphPad was used to make four-parameter equation curve and calculate the relative activity according to the EC50 value.
(§1) In vitro B2-receptor affinity activity and activity of activating downstream signaling pathway of PEG conjugates of lysyl bradykinin and its variants were tested, as in Example 3.

[2] = tested on: B2 receptor downstream signals p-CREB and p-ERK1/2; experiment: Phosphorylation of downstream ERK1/2 and CREB by WB in CHO-K1 (B2R+) cells; type: cell-based; conditions: FIG. 3, WB
Experimental: as §1

Compound	Relative affinity activity to B2 receptor (B2 receptor) [%]	other results
NC(N)=NCCC[C@H](NC(=O)[C@H](Cc1ccccc1)NC(=O)[C@@H]1CCCN1C(=O)[C@H](CO)NC(=O)[C@H](Cc1ccccc1)NC(=O)CNC(=O)[C@@H]1CCCN1C(=O)[C@@H]1CCCN1C(=O)[C@@H](N)CCCN=C(N)N)C(=O)O [BK, bradykinin] (H-RPPGFSPFR-OH)	–	Half-life ([1]; reported): only seconds
NCCCC[C@H](N)C(=O)N[C@@H](CCCN=C(N)N)C(=O)N1CCC[C@H]1C(=O)N1CCC[C@H]1C(=O)NCC(=O)N[C@@H](Cc1ccccc1)C(=O)N[C@@H](CO)C(=O)N1CCC[C@H]1C(=O)N[C@@H](Cc1ccccc1)C(=O)N[C@@H](CCCN=C(N)N)C(=O)O [Lys-BK, lysyl bradykinin]	–	Half-life [1]: only seconds
Lys-BKm13-SPA5K: Lys-BKm13 modified with SPA5K PEG (CRRPPG[2Thi]SPFR; also: modified with SPA5K PEG, site not given here)	–	Activity of PEG conjugates in activating phosphorylation of ERK1/2 and CREB (in words) [2]: highest activity among different peptide variants

More lines, main results first:

Relative affinity activity to B2 receptor (B2 receptor) [%]	Compound	other results
<10	Lys-BKm08: PG{THI}SPFR, SEQ ID NO 9 (PG[2Thi]SPFR)	–
0	Lys-BKm09: {THI}SPFR, SEQ ID NO 10 ([2Thi]SPFR)	–
0	Lys-BKm10: SPFR, SEQ ID NO 11	–
